Source: PubChem BioAssay (NCI)
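Grown in 96-well plates, cells were treated for 48 hours with each compound at five concentrations. Insufficient inhibition: endpoint recorded as highest concentration tested. The concentration for full growth arrest is given as TGI.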

Experiments:
Experiment in all cases: inhibition of tumour cell growth, NCI panel, 48 h
K-562 leukemia = tested on: K-562 leukemia
BT-549 breast = tested on: BT-549 breast
SNB-19 CNS = tested on: SNB-19 CNS
MOLT-4 leukemia = tested on: MOLT-4 leukemia
IGROV1 ovarian = tested on: IGROV1 ovarian
OVCAR-3 ovarian = tested on: OVCAR-3 ovarian
SK-MEL-5 melanoma = tested on: SK-MEL-5 melanoma
NCI/ADR-RES ovarian = tested on: NCI/ADR-RES ovarian
HT29 colon = tested on: HT29 colon
SR leukemia = tested on: SR leukemia
TK-10 renal = tested on: TK-10 renal
NCI-H460 lung = tested on: NCI-H460 lung
A549 NSCLC = tested on: A549 NSCLC
HL-60(TB) leukemia = tested on: HL-60(TB) leukemia
SK-MEL-2 melanoma = tested on: SK-MEL-2 melanoma
HCT-116 colon = tested on: HCT-116 colon
ACHN renal = tested on: ACHN renal
NCI-H226 lung = tested on: NCI-H226 lung
UO-31 renal = tested on: UO-31 renal
OVCAR-8 ovarian = tested on: OVCAR-8 ovarian
786-0 renal = tested on: 786-0 renal
MDA-MB-435 = tested on: MDA-MB-435
SK-MEL-28 melanoma = tested on: SK-MEL-28 melanoma
PC-3 prostate = tested on: PC-3 prostate
KM12 colon = tested on: KM12 colon
OVCAR-4 ovarian = tested on: OVCAR-4 ovarian
COLO 205 colon = tested on: COLO 205 colon
MCF7 breast = tested on: MCF7 breast
EKVX NSCLC = tested on: EKVX NSCLC
SF-295 CNS = tested on: SF-295 CNS
UACC-257 melanoma = tested on: UACC-257 melanoma
HCC-2998 colon = tested on: HCC-2998 colon
SN12C renal = tested on: SN12C renal
CAKI-1 renal = tested on: CAKI-1 renal
SK-OV-3 ovarian = tested on: SK-OV-3 ovarian
SF-268 CNS = tested on: SF-268 CNS
MALME-3M melanoma = tested on: MALME-3M melanoma
MDA-N = tested on: MDA-N
HOP-62 NSCLC = tested on: HOP-62 NSCLC
RXF 393 renal = tested on: RXF 393 renal
SW-620 colon = tested on: SW-620 colon
M14 melanoma = tested on: M14 melanoma
HS 578T breast = tested on: HS 578T breast
U251 CNS = tested on: U251 CNS
UACC-62 melanoma = tested on: UACC-62 melanoma
T-47D breast = tested on: T-47D breast
LOX IMVI melanoma = tested on: LOX IMVI melanoma
SNB-75 CNS = tested on: SNB-75 CNS
NCI-H522 lung = tested on: NCI-H522 lung
HOP-92 NSCLC = tested on: HOP-92 NSCLC
RPMI-8226 leukemia = tested on: RPMI-8226 leukemia
OVCAR-5 ovarian = tested on: OVCAR-5 ovarian
A498 renal = tested on: A498 renal
NCI-H23 lung = tested on: NCI-H23 lung
HCT-15 colon = tested on: HCT-15 colon
MDA-MB-231 breast = tested on: MDA-MB-231 breast
DU-145 prostate = tested on: DU-145 prostate
CCRF-CEM leukemia = tested on: CCRF-CEM leukemia
SF-539 CNS = tested on: SF-539 CNS

Cc1nc2ccc(S(=O)(=O)NS(=O)(=O)c3ccc(-c4ccccc4)cc3)cc2c(=O)n1NS(=O)(=O)c1ccc(-c2ccccc2)cc1
TGI (K-562 leukemia): > 100 µM
TGI (BT-549 breast): > 100 µM
TGI (SNB-19 CNS): > 100 µM
TGI (MOLT-4 leukemia): > 100 µM
TGI (IGROV1 ovarian): > 100 µM
TGI (OVCAR-3 ovarian): > 100 µM
TGI (SK-MEL-5 melanoma): > 100 µM
TGI (NCI/ADR-RES ovarian): > 100 µM
TGI (HT29 colon): > 100 µM
TGI (SR leukemia): > 100 µM
TGI (TK-10 renal): > 100 µM
TGI (NCI-H460 lung): > 100 µM
TGI (A549 NSCLC): > 100 µM
TGI (HL-60(TB) leukemia): > 100 µM
TGI (SK-MEL-2 melanoma): > 100 µM
TGI (HCT-116 colon): > 100 µM
TGI (ACHN renal): > 100 µM
TGI (NCI-H226 lung): > 100 µM
TGI (UO-31 renal): > 100 µM
TGI (OVCAR-8 ovarian): > 100 µM
TGI (786-0 renal): > 100 µM
TGI (MDA-MB-435): > 100 µM
TGI (SK-MEL-28 melanoma): > 100 µM
TGI (PC-3 prostate): > 100 µM
TGI (KM12 colon): > 100 µM
TGI (OVCAR-4 ovarian): > 100 µM
TGI (COLO 205 colon): > 100 µM
TGI (MCF7 breast): > 100 µM
TGI (EKVX NSCLC): > 100 µM
TGI (SF-295 CNS): > 100 µM
TGI (UACC-257 melanoma): > 100 µM
TGI (HCC-2998 colon): > 100 µM
TGI (SN12C renal): > 100 µM
TGI (CAKI-1 renal): > 100 µM
TGI (SK-OV-3 ovarian): > 100 µM
TGI (SF-268 CNS): > 100 µM
TGI (MALME-3M melanoma): > 100 µM
TGI (MDA-N): > 100 µM
TGI (HOP-62 NSCLC): > 100 µM
TGI (RXF 393 renal): > 100 µM
TGI (SW-620 colon): > 100 µM
TGI (M14 melanoma): > 100 µM
TGI (HS 578T breast): > 100 µM
TGI (U251 CNS): > 100 µM
TGI (UACC-62 melanoma): > 100 µM
TGI (T-47D breast): > 100 µM
TGI (LOX IMVI melanoma): > 100 µM
TGI (SNB-75 CNS): > 100 µM
TGI (NCI-H522 lung): > 100 µM
TGI (HOP-92 NSCLC): > 100 µM
TGI (RPMI-8226 leukemia): > 100 µM
TGI (OVCAR-5 ovarian): > 100 µM
TGI (A498 renal): > 100 µM
TGI (NCI-H23 lung): > 100 µM
TGI (HCT-15 colon): > 100 µM
TGI (MDA-MB-231 breast): > 100 µM
TGI (DU-145 prostate): > 100 µM
TGI (CCRF-CEM leukemia): > 100 µM
TGI (SF-539 CNS): > 100 µM

N#Cc1c(Cl)c2cccnc2n2c1nc1ccccc12
TGI (K-562 leukemia): 6.05 µM
TGI (BT-549 breast): 9.28 µM
TGI (SNB-19 CNS): 38.5 µM
TGI (MOLT-4 leukemia): 6.15 µM
TGI (IGROV1 ovarian): 4.94 µM
TGI (OVCAR-3 ovarian): 9.6 µM
TGI (SK-MEL-5 melanoma): 2.6 µM
TGI (NCI/ADR-RES ovarian): 6.55 µM
TGI (HT29 colon): 3.61 µM
TGI (SR leukemia): 5.83 µM
TGI (TK-10 renal): 3.09 µM
TGI (NCI-H460 lung): 19.6 µM
TGI (A549 NSCLC): 18.6 µM
TGI (HL-60(TB) leukemia): 3.78 µM
TGI (SK-MEL-2 melanoma): 23.3 µM
TGI (HCT-116 colon): 3.19 µM
TGI (ACHN renal): 3.2 µM
TGI (NCI-H226 lung): 9.58 µM
TGI (UO-31 renal): 3.33 µM
TGI (OVCAR-8 ovarian): 3.77 µM
TGI (786-0 renal): 3.27 µM
TGI (MDA-MB-435): 13.5 µM
TGI (SK-MEL-28 melanoma): 9.75 µM
TGI (PC-3 prostate): 6.23 µM
TGI (KM12 colon): 20.3 µM
TGI (OVCAR-4 ovarian): 5.29 µM
TGI (COLO 205 colon): 4.02 µM
TGI (MCF7 breast): > 25.1 µM
TGI (EKVX NSCLC): 14.9 µM
TGI (SF-295 CNS): 35.9 µM
TGI (UACC-257 melanoma): 7.5 µM
TGI (HCC-2998 colon): 10.7 µM
TGI (SN12C renal): 3.7 µM
TGI (CAKI-1 renal): 3.71 µM
TGI (SK-OV-3 ovarian): 30 µM
TGI (SF-268 CNS): 8.4 µM
TGI (MALME-3M melanoma): 3.28 µM
TGI (MDA-N): 15.7 µM
TGI (HOP-62 NSCLC): > 56.1 µM
TGI (RXF 393 renal): 3.44 µM
TGI (SW-620 colon): 4.59 µM
TGI (M14 melanoma): > 21.4 µM
TGI (HS 578T breast): 10.5 µM
TGI (U251 CNS): 10.3 µM
TGI (UACC-62 melanoma): 9.1 µM
TGI (T-47D breast): 4.79 µM
TGI (LOX IMVI melanoma): 3.51 µM
TGI (SNB-75 CNS): 15.4 µM
TGI (NCI-H522 lung): 2.68 µM
TGI (HOP-92 NSCLC): 3.91 µM
TGI (RPMI-8226 leukemia): 5.67 µM
TGI (OVCAR-5 ovarian): 44.8 µM
TGI (A498 renal): 31.1 µM
TGI (NCI-H23 lung): 4.28 µM
TGI (HCT-15 colon): 3.82 µM
TGI (MDA-MB-231 breast): 5.38 µM
TGI (DU-145 prostate): 4.03 µM
TGI (CCRF-CEM leukemia): 4.02 µM
TGI (SF-539 CNS): 5.4 µM

C=CC(C)(C)n1cc(C2=C(O)C(=O)C(c3cn(C(C)(C)C=C)c4ccccc34)=C(O)C2=O)c2ccccc21
TGI (K-562 leukemia): > 100 µM
TGI (BT-549 breast): 3.63 µM
TGI (SNB-19 CNS): 7.38 µM
TGI (MOLT-4 leukemia): > 45.8 µM
TGI (IGROV1 ovarian): 7.15 µM
TGI (OVCAR-3 ovarian): 4.48 µM
TGI (SK-MEL-5 melanoma): 4.88 µM
TGI (NCI/ADR-RES ovarian): 6.72 µM
TGI (HT29 colon): 16.2 µM
TGI (SR leukemia): > 45 µM
TGI (TK-10 renal): 10.9 µM
TGI (NCI-H460 lung): 12.6 µM
TGI (A549 NSCLC): 14.6 µM
TGI (HL-60(TB) leukemia): > 31.5 µM
TGI (SK-MEL-2 melanoma): 4.22 µM
TGI (HCT-116 colon): > 33.9 µM
TGI (ACHN renal): 12.9 µM
TGI (NCI-H226 lung): 14.3 µM
TGI (UO-31 renal): 4.27 µM
TGI (OVCAR-8 ovarian): 13.6 µM
TGI (786-0 renal): > 34.8 µM
TGI (MDA-MB-435): 14.7 µM
TGI (SK-MEL-28 melanoma): 35 µM
TGI (PC-3 prostate): 7.13 µM
TGI (KM12 colon): 13.5 µM
TGI (OVCAR-4 ovarian): 6.92 µM
TGI (COLO 205 colon): 30 µM
TGI (MCF7 breast): 12.4 µM
TGI (EKVX NSCLC): 14 µM
TGI (SF-295 CNS): 12.8 µM
TGI (UACC-257 melanoma): 9.73 µM
TGI (HCC-2998 colon): 9.8 µM
TGI (SN12C renal): 7.03 µM
TGI (CAKI-1 renal): 6.56 µM
TGI (SK-OV-3 ovarian): 10.4 µM
TGI (SF-268 CNS): 8.15 µM
TGI (MALME-3M melanoma): 11.1 µM
TGI (MDA-N): 4.98 µM
TGI (HOP-62 NSCLC): 8.43 µM
TGI (RXF 393 renal): 3.87 µM
TGI (SW-620 colon): 53.8 µM
TGI (M14 melanoma): 8.5 µM
TGI (HS 578T breast): 5.11 µM
TGI (U251 CNS): 10.4 µM
TGI (UACC-62 melanoma): 4.33 µM
TGI (T-47D breast): 23.1 µM
TGI (LOX IMVI melanoma): 11.2 µM
TGI (SNB-75 CNS): 7.77 µM
TGI (NCI-H522 lung): 13 µM
TGI (HOP-92 NSCLC): 18.9 µM
TGI (RPMI-8226 leukemia): 40.2 µM
TGI (OVCAR-5 ovarian): 4.45 µM
TGI (A498 renal): 34.5 µM
TGI (NCI-H23 lung): 7.83 µM
TGI (HCT-15 colon): 5.01 µM
TGI (MDA-MB-231 breast): 8.27 µM
TGI (DU-145 prostate): 18.9 µM
TGI (CCRF-CEM leukemia): > 100 µM
TGI (SF-539 CNS): 4.11 µM
